The test system of test [1] is L6-myotubes. The test is described as follows: Glucose uptake in differentiated L6-myotubes (Biological Example 2). Format: cell-based. To be noted: read-out: Biological example 2 (GU). Put shortly: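 Differentiated L6 myotubes were serum-starved overnight in 0.5% fatty-acid-free BSA and then stimulated with compound or isoprenaline at 1×10^−5 M final. After 1 h 40 min cells were washed and re-dosed in glucose-free medium. Twenty minutes later, uptake of 50 nM ^3H-2-deoxyglucose over 10 min was measured by scintillation counting of NaOH lysates.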

Test [2] deals with L6-myotubes. As to the kind of experiment: Measurement of intracellular cAMP levels in differentiated L6-myotubes (Biological Example 3). Particulars: 0.25 h. It counts as cell-based. Summed up:
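Serum-starved differentiated L6 myotubes stimulated 15 min with test compound at 1×10^−5 M final (isoprenaline as reference) in HBSS with 1% BSA, 5 mM HEPES, 1 mM IBMX, pH 7.4. Cells EtOH-extracted, lysed, and intracellular cAMP measured by AlphaScreen.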

[3] abbreviates: glucose uptake in differentiated L6-myotubes, compound at 10 μM, activity relative to isoproterenol at 10 μM.
[4] abbreviates: intracellular cAMP in differentiated L6-myotubes, compound at 10 μM, activity relative to isoproterenol at 10 μM.
Where [5] appears, read: glucose uptake, compound at 10 μM relative to isoproterenol at 10 μM.
Where [6] appears, read: intracellular cAMP, compound at 10 μM relative to isoproterenol at 10 μM.

34 molecules from patent publication US20260216294A1, “BETA 2-ADRENERGIC RECEPTOR AGONISTS FOR TREATMENT OR PREVENTION OF MUSCLE WASTING” (ATROGI AB, priority 2023, published 2026) can be followed below.

Molecules are shown by their SMILES.

Take `COc1ccc(C[C@@H]2CC[C@H]([C@@H](O)c3cccc(F)c3)N2)cc1` [Compound 372, (S)-{(2R,5S)-5-[(p-methoxyphenyl)methyl]-2-pyrrolidinyl}(m-fluorophenyl)methanol]: the Emax at 10 µM was over 75% with L6-myotubes [1] (setting [3]) and under 25% with L6-myotubes [2] (setting [4]).
With `COc1ccc(C[C@@]2(C)CC[C@H]([C@H](O)c3cccc(F)c3)N2)cc1` [Compound 366, (R)-{(2R,5R)-5-[(p-methoxyphenyl)methyl]-5-methyl-2-pyrrolidinyl}(m-fluorophenyl)methanol], the figures for the Emax at 10 µM in the test with L6-myotubes [1] (setting [3]) and in the test on L6-myotubes [2] (setting [4]) were over 75% and 25 to 50%, respectively.
For the molecule `CCCCNCC(O)c1cccc(O)c1` (centres unmarked) [Compound 15, 2-(butylamino)-1-(m-hydroxyphenyl)-1-ethanol], the Emax at 10 µM with L6-myotubes [1] (setting [5]) is 50 to 75%; in the test on L6-myotubes [2] (setting [6]), under 25%.
Take `O[C@H](c1cccc(F)c1)C12CCC(COCc3ccc(Cl)cc3)(CC1)N2` [Compound 396, (R)-(4-{[(p-chlorophenyl)methoxy]methyl}-7-azabicyclo[[2.2.1]]hept-1-yl)(m-fluorophenyl)methanol]: the values for the Emax at 10 µM in the test with L6-myotubes [1] (setting [3]) and in the test on L6-myotubes [2] (setting [4]) were over 75% and under 25%, respectively.
The like results for `CO[C@H]1CC[C@@H](CCCNC[C@H](O)c2cncc(F)c2)CC1` [Compound 260, (R)-1-(5-fluoro-3-pyridyl)-2-{3-[(1s,4R)-4-methoxycyclohexyl]propylamino}-1-ethanol] were, in that order, over 75% and under 25%.
On to `CCCCNCC(O)c1cccc(Cl)c1` (centres unmarked) [Compound 2, 2-(butylamino)-1-(m-chlorophenyl)-1-ethanol], for which the Emax at 10 µM in the test with L6-myotubes [1] (setting [5]) is 25 to 50%; with L6-myotubes [2] (setting [6]), under 25%.
With `O[C@H](c1cccc(F)c1)C12CCC(COCc3ccc(F)cc3)(CC1)N2` [Compound 439, (R)-(m-fluorophenyl)(4-{[(p-fluorophenyl)methoxy]methyl}-7-azabicyclo[[2.2.1]]hept-1-yl)methanol], the results for the Emax at 10 µM in the test with L6-myotubes [1] (setting [3]) and in the test on L6-myotubes [2] (setting [4]) were over 75% and 25 to 50%, respectively.
Regarding `CC(C)(C)NC[C@H](O)c1ccccc1F` [Compound 78, (R)-2-(tert-butylamino)-1-(o-fluorophenyl)-1-ethanol], the Emax at 10 µM in the test on L6-myotubes [1] (setting [5]) was over 75%; with L6-myotubes [2] (setting [6]), 25 to 50%.
In the case of `CO[C@H]1CC[C@H](C[C@@H]2CC[C@H]([C@H](O)c3ccccc3F)N2)CC1` [Compound 337, (R)-[(2R,5S)-5-{[(1r,4S)-4-methoxycyclohexyl]methyl}-2-pyrrolidinyl] (o-fluorophenyl)methanol], the figures for the Emax at 10 µM with L6-myotubes [1] (setting [3]) and with L6-myotubes [2] (setting [4]) were over 75% and under 25%, respectively.
The like results for `O[C@@H](c1cncc(F)c1)C12CCC(CCCc3ccccc3)(CC1)N2` [Compound 531, (S)-(5-fluoro-3-pyridyl){4-(3-phenylpropyl)-7-azabicyclo[[2.2.1]]hept-1-yl}methanol] were, in that order, 50 to 75% and under 25%.
With `CC1(C)CC[C@@H]([C@@H](O)c2cccc(O)c2)N1` [Compound 143], the Emax at 10 µM in the test on L6-myotubes [1] (setting [5]) and in the test with L6-myotubes [2] (setting [6]) was under 25% in each case.
For the molecule `CC1(NC[C@H](O)c2cccc(F)c2)CCC1` [Compound 83, (R)-1-(m-fluorophenyl)-2-(1-methylcyclobutylamino)-1-ethanol], the results for the Emax at 10 µM in the test on L6-myotubes [1] (setting [5]) and in the test with L6-myotubes [2] (setting [6]) were over 75% and 25 to 50%, respectively.
Taken in the same sequence, the figures for `CC(C)(C)NC[C@H](O)c1ccc(O)cn1` [Compound 95, 6-[(S)-2-(tert-butylamino)-1-hydroxyethyl]-3-pyridinol] were 50 to 75% and under 25%.
`CC(C)(C[C@H]1CC[C@@H](NS(=O)(=O)C(F)(F)F)CC1)NC[C@H](O)c1cccc(F)c1` [Compound 493, (R)-2-{1,1-dimethyl-2-[(1s,4S)-4-(trifluoromesylamino)cyclohexyl]ethylamino}-1-(m-fluorophenyl)-1-ethanol]: the Emax at 10 µM in the test on L6-myotubes [1] (setting [3]) was 25 to 50%; in the test on L6-myotubes [2] (setting [4]), under 25%.
As to `CC1(C)CC[C@H]([C@@H](O)c2cccc(F)c2)N1` [Compound 109, (S)-[(R)-5,5-dimethyl-2-pyrrolidinyl](m-fluorophenyl)methanol], the values for the Emax at 10 µM with L6-myotubes [1] (setting [5]) and in the test on L6-myotubes [2] (setting [6]) were 25 to 50% and under 25%, respectively.
Turning to `CO[C@H]1CCC[C@@H](C(C)(C)NC[C@H](O)c2cncc(F)c2)C1` [Compound 270, (R)-2-{1-[(1R,3S)-3-methoxycyclohexyl]-1-methylethylamino}-1-(5-fluoro-3-pyridyl)-1-ethanol], the Emax at 10 µM in the test on L6-myotubes [1] (setting [3]) is over 75%; in the test with L6-myotubes [2] (setting [4]) it was 50 to 75%.
The like results for `CS(=O)(=O)Nc1ccc(CC23CCC([C@@H](O)c4cccc(F)c4)(CC2)N3)cc1` [Compound 474, (S)-(m-fluorophenyl)(4-{[p-(mesylamino)phenyl]methyl}-7-azabicyclo[[2.2.1]]hept-1-yl)methanol] were, in that order, 50 to 75% and under 25%.
Taken in the same sequence, the figures for `COc1ccc(CCC23CCC([C@H](O)c4cncc(F)c4)(CC2)N3)cc1` [Compound 542, (R)-(5-fluoro-3-pyridyl){4-[2-(p-methoxyphenyl)ethyl]-7-azabicyclo[[2.2.1]]hept-1-yl}methanol] were 50 to 75% and 25 to 50%.
The like results for `CO[C@H]1CC[C@H](C[C@H]2CC[C@H]([C@@H](O)c3cncc(F)c3)N2)CC1` [Compound 340, (S)-[(2R,5R)-5-{[(1r,4R)-4-methoxycyclohexyl]methyl}-2-pyrrolidinyl](5-fluoro-3-pyridyl)methanol] were, in that order, 25 to 50% and under 25%.
For the molecule `CN(C)S(=O)(=O)[C@H]1CC[C@@H](CC(C)(C)NC[C@H](O)c2cncc(F)c2)CC1` [Compound 471], the figures for the Emax at 10 µM with L6-myotubes [1] (setting [3]) and with L6-myotubes [2] (setting [4]) were over 75% and 50 to 75%, respectively.
The like results for `CS(=O)(=O)N[C@H]1CC[C@@H](CNC[C@H](O)c2cccc(F)c2)CC1` [Compound 312, (R)-1-(m-fluorophenyl)-2-({[(1s,4S)-4-(mesylamino)cyclohexyl]methyl}amino)-1-ethanol] were, in that order, 50 to 75% and under 25%.
The like results for `O[C@@H](CNCC[C@H]1CC[C@@H](OCc2ccccc2)CC1)c1cncc(F)c1` [Compound 291, (R)-1-(5-fluoro-3-pyridyl)-2-{2-[(1s,4S)-4-(benzyloxy)cyclohexyl]ethylamino}-1-ethanol] were, in that order, 50 to 75% and under 25%.
Taken in the same sequence, the figures for `O=C(N[C@H]1CC[C@@H](CNC[C@H](O)c2cncc(F)c2)CC1)c1ccccc1` [Compound 318] were 50 to 75% and under 25%.
With `CC(C)(C[C@H]1CC[C@@H](NS(C)(=O)=O)CC1)NC[C@H](O)c1cccc(F)c1` [Compound 453, (R)-2-{1,1-dimethyl-2-[(1s,4S)-4-(mesylamino)cyclohexyl]ethylamino}-1-(m-fluorophenyl)-1-ethanol], the figures for the Emax at 10 µM with L6-myotubes [1] (setting [3]) and in the test with L6-myotubes [2] (setting [4]) were over 75% and under 25%, respectively.
The like results for `CC(C)(NC[C@H](O)c1cncc(F)c1)[C@H]1CC[C@H](NS(C)(=O)=O)CC1` [Compound 345, (R)-1-(5-fluoro-3-pyridyl)-2-{1-methyl-1-[(1r,4R)-4-(mesylamino)cyclohexyl]ethylamino}-1-ethanol] were, in that order, 25 to 50% and under 25%.
`CCC[C@H]1CCC[C@H]([C@@H](O)c2ccc(F)cc2)N1` [Compound 105]: the figures for the Emax at 10 µM in the test on L6-myotubes [1] (setting [5]) and with L6-myotubes [2] (setting [6]) were 25 to 50% and under 25%, respectively.
On to `CO[C@H]1CC[C@H](CCCNC[C@H](O)c2cccc(F)c2)CC1` [Compound 259, (R)-1-(m-fluorophenyl)-2-{3-[(1r,4S)-4-methoxycyclohexyl]propylamino}-1-ethanol], for which the results for the Emax at 10 µM in the test on L6-myotubes [1] (setting [3]) and in the test with L6-myotubes [2] (setting [4]) were 25 to 50% and under 25%, respectively.
With `O[C@H](c1cccc(F)c1)C12CCC(CCc3ccc(Cl)cc3)(CC1)N2` [Compound 528, (R)-{4-[2-(p-chlorophenyl)ethyl]-7-azabicyclo[[2.2.1]]hept-1-yl}(m-fluorophenyl)methanol], the Emax at 10 µM in the test with L6-myotubes [1] (setting [3]) and with L6-myotubes [2] (setting [4]) was under 25% in each case.
With `CC12CC(C1)[C@H]([C@@H](O)c1ccccc1F)N2` [Compound 212], the Emax at 10 µM in the test on L6-myotubes [1] (setting [3]) is over 75%; in the test on L6-myotubes [2] (setting [4]) it was under 25%.
On to `CCCCNCC(O)c1ccc(F)c(N)c1` (centres unmarked) [Compound 44, 1-(3-amino-4-fluorophenyl)-2-(butylamino)-1-ethanol], for which the Emax at 10 µM in the test on L6-myotubes [1] (setting [5]) is 50 to 75%; in the test on L6-myotubes [2] (setting [6]), under 25%.
In the case of `CO[C@H]1CC[C@H](CC(C)(C)NC[C@H](O)c2cccc(F)c2)CC1` [Compound 249, (R)-2-{1,1-dimethyl-2-[(1r,4R)-4-methoxycyclohexyl]ethylamino}-1-(m-fluorophenyl)-1-ethanol], the Emax at 10 µM is over 75% in the test on L6-myotubes [1] (setting [3]) and under 25% in the test on L6-myotubes [2] (setting [4]).
Turning to `O[C@H](c1cccc(F)c1)[C@H]1CCC2(CCCC2)N1` [Compound 168], the Emax at 10 µM with L6-myotubes [1] (setting [5]) is 50 to 75%; with L6-myotubes [2] (setting [6]), 25 to 50%.
On to `CC1(NC[C@H](O)c2cccc(F)c2)CC1` [Compound 82, (R)-1-(m-fluorophenyl)-2-(1-methylcyclopropylamino)-1-ethanol], for which the Emax at 10 µM in the test on L6-myotubes [1] (setting [5]) was over 75%; in the test on L6-myotubes [2] (setting [6]), under 25%.
With `O[C@@H](CNCC[C@H]1CC[C@H](OCc2ccccc2)CC1)c1cncc(F)c1` [Compound 292, (R)-1-(5-fluoro-3-pyridyl)-2-{2-[(1r,4R)-4-(benzyloxy)cyclohexyl]ethylamino}-1-ethanol], the Emax at 10 µM in the test with L6-myotubes [1] (setting [3]) and in the test on L6-myotubes [2] (setting [4]) was under 25% in each case.
